Assays:
[1] = Low cellular toxicity screen; assay type: cell-based; parameters: key: ✓: using strict cutoffs with respect to DSHN for passing each metric; X: using strict cutoffs with respect to DSHN for passing each metric; conditions: pass/fail with respect to DSHN
Text: (§1) Development of a more efficacious NR0B2 agonist. While DSHN was a useful proof-of-concept small molecule, macrophages required high doses and chronic exposure for robust influences on subsequent Tregs expansion. […] Therefore, we synthesized several derivatives of DSHN and screened them using a reporter assay which makes use of the endogenous cholesterol homeostatic feedback loop, where FXR activation upregulates NR0B2, which then inhibits LXR and its normal induction of ABCA1. We then followed this screen with several others with stringent cutoffs: effect on endogenous ABCA1 and IL1β expression, reduction of Treg expansion in either macrophage or DC co-cultures, and low cellular toxicity (FIG. 5A, Table 4).
Resazurin cell viability assay. 20,000 cells were seeded into 96 well f-bottom, black plates (Corning Costar) and cell viability was measured using 100 μL resazurin per well at 0.3 mg/mL (Acros Organics). The fluorescence signal was quantified by plate reader (560 nm excitation/590 nm emission) at 2-3 h.

IL1b mRNA = IL1b mRNA reduction in Raw cells; assay type: cell-based; parameters: key: ✓: using strict cutoffs with respect to DSHN for passing each metric; X: using strict cutoffs with respect to DSHN for passing each metric; conditions: pass/fail with respect to DSHN
Text: as §1

ABCA1 mRNA = ABCA1 mRNA reduction in Raw cells; assay type: cell-based; parameters: key: ✓: using strict cutoffs with respect to DSHN for passing each metric; X: using strict cutoffs with respect to DSHN for passing each metric; conditions: pass/fail with respect to DSHN
Text: as §1

Treg expansion [2] = assay: Treg expansion in co-culture with compound-treated BMDMs (macrophages); assay type: cell-based, mouse; parameters: key to Treg expansion macrophages: ✓: using strict cutoffs with respect to DSHN for passing each metric; X: using strict cutoffs with respect to DSHN for passing each metric; conditions: pass/fail with respect to DSHN
Method: (§2) Preparation of Bone Marrow-Derived Macrophages (BMDMs) and Dendritic Cells. Bone marrow cells were collected from mouse tibia and femur. Cells were passed through 70-micron cell strainer and subsequently cultured 10 mL complete RPMI media supplemented with 20 ng/mL of recombinant murine M-CSF (576406; BioLegend, 315-02 PeproTech). On day 3, additional 5 ml of the complete media was added. On day 7, media was replaced. BMDMs were harvested on day 10 using cell stripper solution for further experiments. Dendritic cells were isolated from the spleens of wildtype, using mouse CD11c UltraPure MicroBeads (130-125-835; Miltenyi Biotec) according to the manufacturer's instructions) and cultured in RPMI medium supplemented with 10% heat-inactivated charcoal-stripped FBS, 50 μM β-mercaptoethanol, 1% sodium pyruvate, 1% nonessential amino acids, % penicillin/streptomycin, and 1% Glutamax.
(§3) In vitro Treg expansion assays. T cells were cultured in RPMI medium supplemented with 10% heat-inactivated charcoal-stripped FBS, 50 μM β-mercaptoethanol (Gibco), 1% sodium pyruvate, 1% nonessential amino acids, % penicillin/streptomycin, and 1% Glutamax (Gibco). Naïve CD4^+ T cells were isolated from the spleens of wildtype and OT-II, using Naive CD4^+ T Cell Isolation Kit (Miltenyi Biotec according to the manufacturer's instructions). T cells were labeled with the vital dye CFSE (BioLegend) or Cell Trace Violet (ThermoFisher) according to the manufacturer's instructions. For wildtype Treg expansion in presence of antigen presenting cells, naïve CD4^+ T cells were co-cultured with APC at indicated ratio in the presence of 0.5 μg/mL (anti-CD3 BioLegend), 0.5 ng/mL TGFβ (BioLegend) and 0.5 ng/ml IL-2 (BioLegend) for 72 hr at 37° C. For OT-II Treg expansion, OTII naïve CD4^+ T cells from OT-II mice were activated by antigen presentation by culturing BMDMs were primed with 10 μg/mL OVA323-339 (Bachem) and 0.5 μg/mL LPS (Sigma). naïve CD4+ T cells from OTII mice were co-cultured with primed APC at indicated ratio for 72 hrs. After 72 hrs of culture, cells were transferred into V-bottom plates (BD), pelleted by centrifugation and incubated with antibody staining mix containing Ghost Dye™ Red 780 viability dye diluted in PBS for 15 minutes at 4° C. Cell surface antigens were stained for 15 minutes at 4° C. with an antibody staining mix containing Ghost Dye™ Red 780 viability dye diluted in PBS. Cells were fixed and permeabilized with BD Cytofix/Cytoperm™ for 20 minutes at 4° C. Antibodies against intracellular antigens were diluted in 1×BD Perm/Wash™ buffer and cells were stained for 30 minutes at 4° C. Cytometry data were acquired on a LSRII, Fortessa, Symphony A1 (Becton Dickinson, NJ). Foxp3 induction was assessed by expression of FOXP3.

NR0B2 = biological target: T1, NR0B2 (Homo sapiens, UniProt Q15466); assay: ABCA1 reporter screen to identify NR0B2 agonists (HepG2); assay type: cell-based; parameters: key: ✓: using strict cutoffs with respect to DSHN for passing each metric; X: using strict cutoffs with respect to DSHN for passing each metric; conditions: HepG2, 50 μM test compound, 1 μM GW3965; pass/fail with respect to DSHN
T1 construct: a reporter assay which makes use of the endogenous cholesterol homeostatic feedback loop; endogenous in cells; host or cells: HepG2
T1 sequence (Q15466 1-257): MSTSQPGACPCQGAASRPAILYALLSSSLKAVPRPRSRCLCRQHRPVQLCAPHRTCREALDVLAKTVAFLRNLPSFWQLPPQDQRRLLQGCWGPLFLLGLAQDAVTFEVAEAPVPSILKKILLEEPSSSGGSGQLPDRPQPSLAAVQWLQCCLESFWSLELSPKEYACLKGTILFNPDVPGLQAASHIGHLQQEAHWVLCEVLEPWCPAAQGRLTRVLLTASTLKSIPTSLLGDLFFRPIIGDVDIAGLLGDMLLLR
Text: as §1
Screening to identify NR0B2 agonists. HepG2 cells were co-transfected with ABCA1 renilla reporter plasmid and TK-control firefly luciferase vector at 20:1 using Lipofectamine 3000 reagent according to manufacturer's instructions for 24 hrs. Afterwards, 7000 cells were seeded in to 384 well f-bottom, white plates (Greiner Bio-One). Test compounds were added to the plates in a final working volume of 30 μL (for a final concentration of 50 μM) in presence of DMSO or 1 μM GW3965 and incubated for 20-24 hrs at 37° C. Luciferase activity was measured using the Luc-Pair Duo-Luciferase HT Assay kit (GeneCopoeia, Rockville, MD, USA) by adding luciferase substrates sequentially following manufacturer instructions. Luminescence was measured with 2 s integration times in a microplate reader (BioTek Cytation 5), 15 min after adding each substrate. The addition of reagents to the microplates was timed at each step to match the reading time delays and reading sequence of the microplate reader.

Treg expansion [3] = assay: Treg expansion in co-culture with compound-treated splenic CD11C+ dendritic cells; assay type: cell-based, mouse; parameters: key to Treg expansion Dendritic Cells: ✓: using strict cutoffs with respect to DSHN for passing each metric; X: using strict cutoffs with respect to DSHN for passing each metric; conditions: pass/fail with respect to DSHN
Method: as §2, §3

| ABCA1 reporter screen (NR0B2) | Structure (SMILES) | Low Toxicity [1] | IL1b mRNA reduction (Raw Cells) (IL1b mRNA) | ABCA1 mRNA reduction (Raw Cells) (ABCA1 mRNA) | Treg expansion macrophages (Treg expansion [2]) | Treg expansion Dendritic Cells (Treg expansion [3]) |
| --- | --- | --- | --- | --- | --- | --- |
| X | CCNS(=O)(=O)c1cccc2cc(C(=O)OC)c(OC)cc12 [Compound 5, Methyl 5-(N-ethylsulfamoyl)-3-methoxy-2-naphthoate] | ✓ | ✓ | X | ✓ | ✓ |
| ✓ | CCNS(=O)(=O)c1ccc2cc(OC)c(C(=O)OC)cc2c1 [Compound 6, Methyl 7-(N-ethylsulfamoyl)-3-methoxy-2-naphthoate] | X | X | X | ✓ | ✓ |
| ✓ | COC(=O)c1cc2cccc(S(=O)(=O)N(C)C)c2cc1OC [Compound 7, Methyl 5-(N,N-dimethylsulfamoyl)-3-methoxy-2-naphthoate] | ✓ | ✓ | X | ✓ | ✓ |
| ✓ | COC(=O)c1cc2cc(S(=O)(=O)N(C)C)ccc2cc1OC [Compound 8, Methyl 7-(N,N-dimethylsulfamoyl)-3-methoxy-2-naphthoate] | ✓ | X | X | ✓ | ✓ |
| X | CCN(CC)S(=O)(=O)c1ccc2cc(O)c(C(=O)OC)cc2c1 [Compound 9, Methyl 7-(N,N-diethylsulfamoyl)-3-hydroxy-2-naphthoate] | ✓ | ✓ | X | ✓ | ✓ |
